Columns and labels:
[1] = system: Enterobacteriaceae strains; assay: FCM analysis of Ceftazidime-treated strains (DiBAC4(3) marker), fluorescence distribution; type: cell-based; conditions: 128 strains, 1, 2, 4 and 8 mg/L Ceftazidime; inferred from low performance of quantile models
Description: In a next step 22, liquid samples with different concentrations {C1, . . . , Cm} of the antibiotic are prepared for each of the selected strains Si, where C1=0 (no antibiotic) and m>2 is the number of non-null concentrations of antibiotic. Said concentrations are stored in the computer unit 14. […] After 2 h growth at 35° C. with shaking at 180 rpm, the resulting exponential phase bacterial culture is normalized at 0.5 McF and used to inoculate wells of a microtiterplate supplemented with antibiotics at the different concentrations {C1, . . . , Cm}. After 1 h of incubation at 35° C., a membrane depolarization fluorescent marker, for example (Bis-(1,3-Dibutylbarbituric Acid)Trimethine Oxonol), also known as “DiBAC4(3)”, is added to the wells at a final concentration of 0.5 μg/ml. An additional 15 min incubation with the marker is at 35° C. is then carried out. […]
In the step 24, a FCM acquisition is performed for each sample by means of the flow-cytometer 12 and the corresponding FSC, SSC and fluorescence distributions stored in the computer unit 14. For each strain Si, and for each concentration C1, a FSC distribution “FSCi,j”, a SSC distribution “SSCi,j” and a fluorescence distribution “FIi,j” are thus stored in the computer unit 14, e.g. in the form of digital vectors. […]

[2] = system: Enterobacteriaceae strains; assay: FCM fluorescence distribution profiles of Gentamicin-treated strains (DiBAC4(3) membrane depolarization marker); type: cell-based
Description: In a next step 22, liquid samples with different concentrations {C1, . . . , Cm} of the antibiotic are prepared for each of the selected strains Si, where C1=0 (no antibiotic) and m>2 is the number of non-null concentrations of antibiotic. Said concentrations are stored in the computer unit 14. […] After 2 h growth at 35° C. with shaking at 180 rpm, the resulting exponential phase bacterial culture is normalized at 0.5 McF and used to inoculate wells of a microtiterplate supplemented with antibiotics at the different concentrations {C1, . . . , Cm}. After 1 h of incubation at 35° C., a membrane depolarization fluorescent marker, for example (Bis-(1,3-Dibutylbarbituric Acid)Trimethine Oxonol), also known as “DiBAC4(3)”, is added to the wells at a final concentration of 0.5 μg/ml. An additional 15 min incubation with the marker is at 35° C. is then carried out. The concentrations {C1, . . . , Cm} are chosen such that the range [BPS, BPR] is included or equal to the range [C2, Cm] of non-null concentrations.
In the step 24, a FCM acquisition is performed for each sample by means of the flow-cytometer 12 and the corresponding FSC, SSC and fluorescence distributions stored in the computer unit 14. For each strain Si, and for each concentration C1, a FSC distribution “FSCi,j”, a SSC distribution “SSCi,j” and a fluorescence distribution “FIi,j” are thus stored in the computer unit 14, e.g. in the form of digital vectors.
The experiment was performed as described in the following lines: • A panel of 107 Enterobacteriaceae strains (FIG. 6: Distribution of the panel of strains according to their MICs for Gentamicin) were treated with 0, 2, 4 and 8 mg/L of Gentamicin following the protocol described in FIG. 3 and analyzed by FCM.

Compound	fluorescence distribution of treated strains [1]	fluorescence distribution profile vs untreated samples ([2]; intermediate phenotype strains, 2 mg/L Gentamicin)	fluorescence distribution profile vs untreated samples ([2]; intermediate phenotype strains, 4 and 8 mg/L Gentamicin)	resistant strains that did not show any shift in fluorescence (profile A) ([2]; resistant phenotype strains, all concentrations tested (2, 4, 8 mg/L))	fluorescence distribution profile vs untreated samples ([2]; susceptible phenotype strains, 2 mg/L Gentamicin, panel of 107 strains, approximately evaluated)	fluorescence distribution profile vs untreated samples ([2]; susceptible phenotype strains, 4 and 8 mg/L Gentamicin, panel of 107 strains, approximately evaluated)
CC(C)(O/N=C(\C(=O)N[C@@H]1C(=O)N2C(C(=O)[O-])=C(C[n+]3ccccc3)CS[C@H]12)c1csc(N)n1)C(=O)O [Ceftazidime]	the majority of strains treated with Ceftazidime exhibit homogeneous distributions of fluorescence	–	–	–	–	–
Gentamicin	–	more strains showed no shift of fluorescence (profile A)	equal number of strains exhibited either no shift (profile A) or heterogeneous fluorescence distribution (profile B)	36 out of 37	equal number of strains exhibited either no shift (profile A) or heterogeneous fluorescence distributions (profile B)	the majority of strains exhibited an heterogeneous fluorescence distribution (profile B)

— patent publication US11649476B2, “Flow cytometry data processing for antimicrobial agent sensibility prediction” (priority 2016, dated 2023)
